Common to all, as to test: microscale thermophoresis (MST)
Type in all cases: binding
For orientation: Microscale thermophoresis detects binding through changes in fluorescence in a small temperature gradient.

For one test, the target named is T1, alpha-enolase (ENO1) (Homo sapiens, UniProt P06733).
T1 construct: His-tagged ENO1 protein

Another test deals with T2, pyruvate kinase M (PKM) (Homo sapiens, UniProt P14618).
T2 construct: His-tagged PKM protein

Another test deals with T3, ENO1 (S254A) (Homo sapiens, UniProt P06733, S254A).
T3 construct: His-tagged ENO1 (S254A) protein

A word on the Kd: it is a measure of binding affinity in units of concentration. A lower Kd goes with tighter binding.

T1 sequence (P06733 2-434): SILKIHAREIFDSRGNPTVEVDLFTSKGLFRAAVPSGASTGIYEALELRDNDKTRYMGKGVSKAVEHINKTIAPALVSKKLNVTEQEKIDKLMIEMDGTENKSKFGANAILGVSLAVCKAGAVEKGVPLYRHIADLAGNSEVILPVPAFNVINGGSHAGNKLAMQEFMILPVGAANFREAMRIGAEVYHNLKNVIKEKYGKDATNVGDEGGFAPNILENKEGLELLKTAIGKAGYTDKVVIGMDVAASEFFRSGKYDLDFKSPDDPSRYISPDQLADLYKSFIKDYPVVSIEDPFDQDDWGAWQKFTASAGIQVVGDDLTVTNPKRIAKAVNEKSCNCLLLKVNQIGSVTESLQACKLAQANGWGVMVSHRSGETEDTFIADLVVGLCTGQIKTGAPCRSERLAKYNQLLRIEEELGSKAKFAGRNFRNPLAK
T2 sequence (P14618 2-531): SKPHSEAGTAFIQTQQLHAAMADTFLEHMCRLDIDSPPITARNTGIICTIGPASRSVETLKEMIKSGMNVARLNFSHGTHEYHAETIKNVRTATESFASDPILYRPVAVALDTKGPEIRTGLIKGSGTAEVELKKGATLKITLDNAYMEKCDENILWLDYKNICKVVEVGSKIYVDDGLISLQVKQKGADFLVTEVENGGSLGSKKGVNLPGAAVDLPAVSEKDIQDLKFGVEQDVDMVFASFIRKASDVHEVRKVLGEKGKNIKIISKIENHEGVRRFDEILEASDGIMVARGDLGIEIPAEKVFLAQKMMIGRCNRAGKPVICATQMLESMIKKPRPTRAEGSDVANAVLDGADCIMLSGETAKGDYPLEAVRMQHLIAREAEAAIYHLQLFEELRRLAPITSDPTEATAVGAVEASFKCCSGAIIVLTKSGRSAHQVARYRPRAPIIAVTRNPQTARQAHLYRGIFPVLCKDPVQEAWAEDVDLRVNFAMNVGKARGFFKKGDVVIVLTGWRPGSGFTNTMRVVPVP
T3 sequence (P06733 2-434 S254A): as the sequence (P06733 2-434) above, with S253A counted along it

Consider `CCOC(=O)c1nc(-c2ccc(C(F)(F)F)cc2)oc1-c1cccc(C)c1` [KB2764], for which the equilibrium dissociation constant (Kd) is 0.0401 µM at alpha-enolase (ENO1), 9.32 µM on pyruvate kinase M (PKM) and 240 µM on ENO1 (S254A).

The values are drawn from PMC12508687, “Elucidating the Role and Mechanism of Alpha‐Enolase in Senescent Amelioration via Metabolic Reprogramming” (Cell Proliferation, 2025).
